Assay results published in ChEMBL document CHEMBL1156726, “Discovery of a potent and selective aurora kinase inhibitor” (Bioorg Med Chem Lett, 2008).

What was measured:
Aurora kinase A = biological target: T1, Aurora kinase A (Homo sapiens, UniProt O14965)
T1 sequence (O14965 whole entry): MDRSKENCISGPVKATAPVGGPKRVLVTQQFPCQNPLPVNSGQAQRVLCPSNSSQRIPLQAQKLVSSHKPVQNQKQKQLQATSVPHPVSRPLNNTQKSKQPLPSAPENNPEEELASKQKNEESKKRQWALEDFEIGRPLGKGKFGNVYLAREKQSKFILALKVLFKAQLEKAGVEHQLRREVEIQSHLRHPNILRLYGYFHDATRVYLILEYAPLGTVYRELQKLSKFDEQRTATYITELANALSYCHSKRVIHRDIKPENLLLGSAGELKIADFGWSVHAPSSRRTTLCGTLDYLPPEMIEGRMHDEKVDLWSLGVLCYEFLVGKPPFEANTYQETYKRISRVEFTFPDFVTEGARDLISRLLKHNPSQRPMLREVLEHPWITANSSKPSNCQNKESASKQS
Description: Inhibition of Aurora A by radiometric assay

HCT-116 [1] = assay: Antiproliferative activity against human HCT116 cells assessed as BrdU incorporation; format: functional, cell-based
HCT-116 [2] = assay: Cell cycle arrest in human HCT116 cells assessed as accumulation of 4N DNA phase after 16 hrs by FACS; conditions: HCT-116, 16 h
Aurora kinase B = Aurora kinase B (Homo sapiens, UniProt Q96GD4); assay: Inhibition of Aurora B by radiometric assay
Mus musculus [3] = assay: Decrease in histone H3 phosphorylation in human HCT116 cells xenografted mouse at 100 mg/kg, ip after 10 hrs; format: functional; conditions: HCT-116, ip, route intraperitoneal
HCT-116 [4] = assay: Decrease in histone H3 phosphorylation in human HCT116 cells after 16 hrs by Western blot; conditions: HCT-116, 16 h
Mus musculus [5] = assay: Decrease in histone H3 phosphorylation in human HCT116 cells xenografted mouse at 50 mg/kg, ip after 6 hrs; format: functional; conditions: HCT-116, ip, route intraperitoneal
Mus musculus [6] = assay: Decrease in histone H3 phosphorylation in human HCT116 cells xenografted mouse at 100 mg/kg, ip after 6 hrs; format: functional; conditions: HCT-116, ip, route intraperitoneal
Mus musculus [7] = assay: Decrease in histone H3 phosphorylation in human HCT116 cells xenografted mouse at 50 mg/kg, ip after 10 hrs; format: functional; conditions: HCT-116, ip, route intraperitoneal
[8] = Drug level in HCT116 xenografted mouse tumor at 100 mg/kg, ip after 6 hrs; format: ADME, organism-based, Neoplasm; design: dose 100 mg/kg, route intraperitoneal; conditions: human, tumor (HCT116 xenograft), read-out: Drug uptake
[9] = Drug level in HCT116 xenografted mouse tumor at 100 mg/kg, ip after 10 hrs; format: ADME, organism-based, Neoplasm; design: dose 100 mg/kg, route intraperitoneal; conditions: human, tumor (HCT116 xenograft), read-out: Drug uptake
[10] = Drug level in HCT116 xenografted mouse tumor at 50 mg/kg, ip after 6 hrs; format: ADME, organism-based, Neoplasm; design: dose 50 mg/kg, route intraperitoneal; conditions: human, tumor (HCT116 xenograft), read-out: Drug uptake
[11] = Drug level in HCT116 xenografted mouse tumor at 50 mg/kg, ip after 10 hrs; format: ADME, organism-based, Neoplasm; design: dose 50 mg/kg, route intraperitoneal; conditions: human, tumor (HCT116 xenograft), read-out: Drug uptake
HCT-116 [12] = assay: Antitumor activity against human HCT116 cells xenografted in mouse at 100 mg/kg, ip administered twice weekly for 3 weeks; format: functional; conditions: HCT-116, ip, 504 h, route intraperitoneal, read-out: TGI

Sequence of Aurora kinase B (Q96GD4 whole entry): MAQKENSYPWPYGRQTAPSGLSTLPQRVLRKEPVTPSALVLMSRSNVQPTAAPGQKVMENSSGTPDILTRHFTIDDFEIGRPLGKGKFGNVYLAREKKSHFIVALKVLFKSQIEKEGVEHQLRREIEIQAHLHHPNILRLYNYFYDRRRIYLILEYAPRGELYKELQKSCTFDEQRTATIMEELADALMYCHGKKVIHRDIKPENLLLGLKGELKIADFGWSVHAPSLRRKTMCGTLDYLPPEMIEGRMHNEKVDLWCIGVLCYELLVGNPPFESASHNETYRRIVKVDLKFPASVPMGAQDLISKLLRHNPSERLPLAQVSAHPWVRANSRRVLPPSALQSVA

| SMILES | IC50 (Aurora kinase A) | EC50 (HCT-116 [1]) | EC50 (HCT-116 [2]) | IC50 (Aurora kinase B) | EC50 (HCT-116 [4]) | inhibition in vivo at 50 mg/kg (Mus musculus [5]) | inhibition in vivo at 50 mg/kg (Mus musculus [7]) | further results |
| --- | --- | --- | --- | --- | --- | --- | --- | --- |
| O=C(Nc1ccc(CCNc2ncnc3ccsc23)cc1)c1cccc(C(F)(F)F)c1 | 3.2 µM |  |  |  |  |  |  |  |
| O=C(Nc1ccc(CCNc2ncnc3ccsc23)cc1)Nc1cccc(C(F)(F)F)c1 | 1.2 µM |  |  |  |  |  |  |  |
| O=C(Nc1cccc(CCNc2ncnc3ccsc23)c1)Nc1cccc(C(F)(F)F)c1 | > 20 µM |  |  |  |  |  |  |  |
| COc1cccc(NC(=O)Nc2ncc(CCNc3ncnc4ccsc34)s2)c1 | 0.05 µM | 0.034 µM | 0.016 µM |  |  |  |  |  |
| O=C(Cc1cccc(C(F)(F)F)c1)Nc1ncc(CCNc2ncnc3ccsc23)s1 | > 10 µM |  |  | 0.58 µM |  |  |  | IC50 (HCT-116 [1]): > 10 µM |
| C#Cc1cccc(NC(=O)Nc2ncc(CCNc3ncnc4ccsc34)s2)c1 | 0.041 µM | 0.014 µM | < 0.016 µM |  |  |  |  |  |
| O=C(Nc1cccc(C(F)(F)F)c1)Nc1ncc(CCNc2ncnc3ccsc23)s1 |  |  | < 0.016 µM | 0.014 µM | < 0.016 µM | 75% | 50% | inhibition in vivo at 100 mg/kg (Mus musculus [3]): 75%; inhibition in vivo at 100 mg/kg (Mus musculus [6]): 75% |
| O=C(Nc1ccccc1)Nc1ncc(CCNc2ncnc3ccsc23)s1 | 0.052 µM |  |  | 0.12 µM |  |  |  |  |
| CN(C(=O)Nc1ncc(CCNc2ncnc3ccsc23)s1)c1ccccc1 | 7.2 µM |  |  |  |  |  |  | IC50 (HCT-116 [1]): > 10 µM |
| O=C(Nc1cc(CN2CCCC2)cc(C(F)(F)F)c1)Nc1ncc(CCNc2ncnc3ccsc23)s1 | 0.004 µM | 0.006 µM | < 0.016 µM | 0.022 µM | 0.016 µM | 25% | 0% | inhibition in vivo at 100 mg/kg (Mus musculus [3]): 25%; inhibition in vivo at 100 mg/kg (Mus musculus [6]): 50%; concentration at 6 h [8]: 6.2 µM; concentration at 10 h [9]: 8.76 µM |
| O=C(Nc1ncc(CCNc2ncnc3ccsc23)s1)Nc1cccc2cc[nH]c12 | 0.03 µM | 0.031 µM | 0.016 µM | 0.019 µM | 0.016 µM | 75% | 75% | inhibition in vivo at 100 mg/kg (Mus musculus [3]): 75%; concentration at 6 h [10]: 4.82 µM; inhibition in vivo at 100 mg/kg (Mus musculus [6]): 75%; concentration at 6 h [8]: 16.9 µM; concentration at 10 h [9]: 4.36 µM; concentration at 10 h [11]: 3.67 µM |
| O=C(Nc1ccc(Cl)c(Cl)c1)Nc1ncc(CCNc2ncnc3ccsc23)s1 | 0.096 µM | 0.024 µM | 0.016 µM | 0.013 µM | 0.016 µM | 0% | 0% | inhibition in vivo at 100 mg/kg (Mus musculus [3]): 25%; concentration at 6 h [10]: 21.3 µM; inhibition in vivo at 100 mg/kg (Mus musculus [6]): 25%; concentration at 6 h [8]: 49.5 µM; concentration at 10 h [9]: 54.8 µM; concentration at 10 h [11]: 12.5 µM |
| O=C(Nc1cccc(F)c1)Nc1ncc(CCNc2ncnc3ccsc23)s1 | 0.023 µM | 0.006 µM | < 0.016 µM | 0.018 µM | < 0.016 µM | 25% | 0% | inhibition in vivo at 100 mg/kg (Mus musculus [3]): 25%; concentration at 6 h [10]: 1.2 µM; inhibition in vivo at 100 mg/kg (Mus musculus [6]): 75%; concentration at 6 h [8]: 101 µM; concentration at 10 h [9]: 19.8 µM; concentration at 10 h [11]: < 1 µM |
| O=C(Nc1cccc(C(F)(F)F)c1)Nc1nc(CCNc2ncnc3ccsc23)cs1 | > 20 µM |  |  |  |  |  |  |  |
| Cc1cccc(NC(=O)Nc2ncc(CCNc3ncnc4ccsc34)s2)c1 | 0.009 µM | 0.019 µM | < 0.016 µM | 0.054 µM |  |  |  |  |
| O=C(Nc1cccc(C(F)(F)F)c1)Nc1cn(CCNc2ncnc3ccsc23)nn1 | 0.25 µM |  |  |  |  |  |  |  |
| CS(=O)(=O)O.O=C(Nc1cccc(Cl)c1)Nc1ncc(CCNc2ncnc3ccsc23)s1 [SNS-314 MESYLATE] |  |  | < 0.016 µM |  | < 0.016 µM | 75% | 50% | inhibition in vivo at 100 mg/kg (Mus musculus [3]): 75%; concentration at 6 h [10]: 9.07 µM; inhibition in vivo at 100 mg/kg (Mus musculus [6]): 75%; concentration at 6 h [8]: 28.6 µM; concentration at 10 h [9]: 31.6 µM; inhibition in vivo at 100 mg/kg (HCT-116 [12]): 96%; concentration at 10 h [11]: 3.72 µM |

More lines, main results first:

| IC50 (Aurora kinase A) | EC50 (HCT-116 [1]) | EC50 (HCT-116 [2]) | IC50 (Aurora kinase B) | EC50 (HCT-116 [4]) | SMILES | inhibition in vivo at 50 mg/kg (Mus musculus [5]) | inhibition in vivo at 50 mg/kg (Mus musculus [7]) | further results |
| --- | --- | --- | --- | --- | --- | --- | --- | --- |
| > 20 µM |  |  |  |  | O=C(Nc1cccc(C(F)(F)F)c1)c1ccc(CCNc2ncnc3ccsc23)cc1 |  |  |  |
| 1.2 µM |  |  |  |  | O=C(Nc1cccc(C(F)(F)F)c1)Nc1cn(CCNc2ncnc3ccsc23)cn1 |  |  |  |
| 4.9 µM |  |  | 0.442 µM |  | O=C(Cc1ncc(CCNc2ncnc3ccsc23)s1)Nc1cccc(C(F)(F)F)c1 |  |  |  |
| 2.5 µM |  | 1 µM |  |  | O=C(Nc1ncc(CCNc2ncnc3ccsc23)s1)c1cccc(C(F)(F)F)c1 |  |  |  |
| 0.039 µM | 0.03 µM | 0.016 µM |  |  | O=C(Nc1ccc(Cl)cc1)Nc1ncc(CCNc2ncnc3ccsc23)s1 |  |  |  |
| 0.28 µM | 0.376 µM | > 0.25 µM |  |  | O=C(Nc1ncc(CCNc2ncnc3ccsc23)s1)Nc1ccccc1Cl |  |  |  |
| 0.27 µM | 0.072 µM | 0.063 µM | 0.061 µM |  | O=C(Nc1ncc(CCNc2ncnc3ccsc23)s1)NC1CCCCC1 |  |  |  |
| 0.053 µM | 0.121 µM | 0.016 µM | 0.12 µM | 0.063 µM | O=C(Nc1cccc(CCN2CCC2)c1)Nc1ncc(CCNc2ncnc3ccsc23)s1 | 0% | 0% | concentration at 6 h [10]: < 1 µM; concentration at 10 h [11]: < 1 µM |
| 0.011 µM | 0.005 µM | < 0.016 µM | 0.051 µM | < 0.016 µM | O=C(Nc1ccc(F)c(Cl)c1)Nc1ncc(CCNc2ncnc3ccsc23)s1 | 75% | 25% | inhibition in vivo at 100 mg/kg (Mus musculus [3]): 50%; concentration at 6 h [10]: 25.8 µM; inhibition in vivo at 100 mg/kg (Mus musculus [6]): 75%; concentration at 6 h [8]: 112 µM; concentration at 10 h [9]: 56.1 µM; concentration at 10 h [11]: 15.6 µM |
